According to PubChem BioAssay (NCI):
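Results reflect a 48-hour exposure of cells in 96-well plates to compound at five concentrations. The concentration for 50% growth inhibition is given as GI50. TGI: concentration producing complete growth inhibition.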

Experiments:
Test in all cases: growth of human tumour cells (NCI), 48 h
UACC-62 melanoma = test system: UACC-62 melanoma
NCI-H23 lung = test system: NCI-H23 lung
DU-145 prostate = test system: DU-145 prostate
HCT-116 colon = test system: HCT-116 colon
SK-MEL-28 melanoma = test system: SK-MEL-28 melanoma
SNB-75 CNS = test system: SNB-75 CNS
TK-10 renal = test system: TK-10 renal
CAKI-1 renal = test system: CAKI-1 renal
MDA-MB-231 breast = test system: MDA-MB-231 breast
RPMI-8226 leukemia = test system: RPMI-8226 leukemia
SF-539 CNS = test system: SF-539 CNS
OVCAR-8 ovarian = test system: OVCAR-8 ovarian
K-562 leukemia = test system: K-562 leukemia
UO-31 renal = test system: UO-31 renal
EKVX NSCLC = test system: EKVX NSCLC
SK-MEL-5 melanoma = test system: SK-MEL-5 melanoma
NCI-H522 lung = test system: NCI-H522 lung
OVCAR-5 ovarian = test system: OVCAR-5 ovarian
HOP-62 NSCLC = test system: HOP-62 NSCLC
SF-268 CNS = test system: SF-268 CNS
A498 renal = test system: A498 renal
HS 578T breast = test system: HS 578T breast
SK-OV-3 ovarian = test system: SK-OV-3 ovarian
OVCAR-3 ovarian = test system: OVCAR-3 ovarian
OVCAR-4 ovarian = test system: OVCAR-4 ovarian
MDA-MB-435 = test system: MDA-MB-435
NCI-H460 lung = test system: NCI-H460 lung
M14 melanoma = test system: M14 melanoma
HCC-2998 colon = test system: HCC-2998 colon
SK-MEL-2 melanoma = test system: SK-MEL-2 melanoma
HCT-15 colon = test system: HCT-15 colon
COLO 205 colon = test system: COLO 205 colon
T-47D breast = test system: T-47D breast
SR leukemia = test system: SR leukemia
RXF 393 renal = test system: RXF 393 renal
ACHN renal = test system: ACHN renal
HL-60(TB) leukemia = test system: HL-60(TB) leukemia
CCRF-CEM leukemia = test system: CCRF-CEM leukemia
MALME-3M melanoma = test system: MALME-3M melanoma
HOP-92 NSCLC = test system: HOP-92 NSCLC
IGROV1 ovarian = test system: IGROV1 ovarian
NCI-H226 lung = test system: NCI-H226 lung
NCI/ADR-RES ovarian = test system: NCI/ADR-RES ovarian
UACC-257 melanoma = test system: UACC-257 melanoma
BT-549 breast = test system: BT-549 breast
LOX IMVI melanoma = test system: LOX IMVI melanoma
SN12C renal = test system: SN12C renal
HT29 colon = test system: HT29 colon
KM12 colon = test system: KM12 colon
PC-3 prostate = test system: PC-3 prostate
MOLT-4 leukemia = test system: MOLT-4 leukemia
SNB-19 CNS = test system: SNB-19 CNS
786-0 renal = test system: 786-0 renal
SF-295 CNS = test system: SF-295 CNS

## CNc1cc2nc3cc(NC)c(C)cc3cc2cc1C
UACC-62 melanoma
  GI50: 8820 nM
  TGI: 34500 nM
NCI-H23 lung
  GI50: 624 nM
  TGI: 3110 nM
DU-145 prostate
  GI50: 861 nM
  TGI: 11500 nM
HCT-116 colon
  GI50: 365 nM
  TGI: 1490 nM
SK-MEL-28 melanoma
  GI50: 5910 nM
  TGI: 20500 nM
SNB-75 CNS
  GI50: 3750 nM
  TGI: 19400 nM
TK-10 renal
  GI50: 3550 nM
  TGI: 16200 nM
CAKI-1 renal
  GI50: 2880 nM
  TGI: 17100 nM
MDA-MB-231 breast
  GI50: 1080 nM
  TGI: 2880 nM
RPMI-8226 leukemia
  GI50: 1040 nM
  TGI: 5120 nM
SF-539 CNS
  GI50: 2060 nM
  TGI: 16200 nM
OVCAR-8 ovarian
  GI50: 754 nM
  TGI: 9830 nM
K-562 leukemia
  GI50: 486 nM
  TGI: > 100000 nM
UO-31 renal
  GI50: 365 nM
  TGI: 13300 nM
EKVX NSCLC
  GI50: 1040 nM
  TGI: 8480 nM
SK-MEL-5 melanoma
  GI50: 2050 nM
  TGI: 14000 nM
NCI-H522 lung
  GI50: 552 nM
  TGI: 5060 nM
OVCAR-5 ovarian
  GI50: 2750 nM
  TGI: 20200 nM
HOP-62 NSCLC
  GI50: 1300 nM
  TGI: 16000 nM
SF-268 CNS
  GI50: 687 nM
  TGI: 10900 nM
A498 renal
  GI50: 1180 nM
  TGI: 3900 nM
HS 578T breast
  GI50: 1620 nM
  TGI: 7600 nM
SK-OV-3 ovarian
  GI50: 695 nM
  TGI: 12800 nM
OVCAR-3 ovarian
  GI50: 1320 nM
  TGI: 10000 nM
OVCAR-4 ovarian
  GI50: 1030 nM
  TGI: 3260 nM
MDA-MB-435
  GI50: 2480 nM
  TGI: 18300 nM
NCI-H460 lung
  GI50: 410 nM
  TGI: 1660 nM
M14 melanoma
  GI50: 2240 nM
  TGI: 14100 nM
HCC-2998 colon
  GI50: 1600 nM
  TGI: 14700 nM
SK-MEL-2 melanoma
  GI50: 6000 nM
  TGI: 26200 nM
HCT-15 colon
  GI50: 3700 nM
  TGI: 91100 nM
COLO 205 colon
  GI50: 640 nM
  TGI: 2350 nM
T-47D breast
  GI50: 1100 nM
  TGI: 18400 nM
SR leukemia
  GI50: 530 nM
  TGI: > 100000 nM
RXF 393 renal
  GI50: 1090 nM
  TGI: 2370 nM
ACHN renal
  GI50: 965 nM
  TGI: 20800 nM
HL-60(TB) leukemia
  GI50: 2580 nM
  TGI: 15900 nM
CCRF-CEM leukemia
  GI50: 1080 nM
  TGI: 33300 nM
MALME-3M melanoma
  GI50: 2700 nM
  TGI: 19800 nM
HOP-92 NSCLC
  GI50: 1760 nM
  TGI: 19100 nM
IGROV1 ovarian
  GI50: 562 nM
  TGI: 16200 nM
NCI-H226 lung
  GI50: 810 nM
  TGI: 18800 nM
NCI/ADR-RES ovarian
  GI50: 1690 nM
  TGI: 9280 nM
UACC-257 melanoma
  GI50: 6830 nM
  TGI: 32300 nM
BT-549 breast
  GI50: 3480 nM
  TGI: 14300 nM
LOX IMVI melanoma
  GI50: 446 nM
  TGI: 1790 nM
SN12C renal
  GI50: 573 nM
  TGI: 10500 nM
HT29 colon
  GI50: 300 nM
  TGI: 1100 nM
KM12 colon
  GI50: 792 nM
  TGI: 2280 nM
PC-3 prostate
  GI50: 1070 nM
  TGI: 15700 nM
MOLT-4 leukemia
  GI50: 514 nM
  TGI: > 100000 nM
SNB-19 CNS
  GI50: 1480 nM
  TGI: 16600 nM
786-0 renal
  GI50: 683 nM
  TGI: 2050 nM
SF-295 CNS
  GI50: 1410 nM
  TGI: 13200 nM
